From patent US20240262866A1, “METHOD FOR PREPARING ANIDULAFUNGIN DERIVATIVE” (Shanghai Senhui Medicine Co., Ltd., priority 2021, published 2024)
Read-outs that look alike come from different tables or passages of the source. *1 amine or outer side, *2 acyl side, *3 side chain or, on linkers, in order; H or OH if unused. Where a SMILES comes first, the peptide text is derived from it. Bridges are numbered along the chain shown (N, C = ends). [ ]: non-standard residue; d: D form. The star is where a group is joined. pTerphenylCO(4''-OnC5H11) = CCCCCOc1ccc(-c2ccc(-c3ccc(C(=O)*)cc3)cc2)cc1; Orn(4R-OH,5R-OH) = O=C([C@H](C[C@@H](O)[C@@H](O)N[*:3])N[*:1])[*:2]; hTyr(3S-OH,4S-OH) = N[C@H](C(=O)O)[C@H](O)[C@@H](O)c1ccc(O)cc1; Pro(3S-OH,4S-Me) = C[C@H]1CN[C@H](C(=O)O)[C@H]1O; Hyp = O=C(O)[C@@H]1C[C@@H](O)CN1

Columns and labels:
[1] = tested on: Aspergillus flavus ATCC 28539; assay: MEC assay (CLSI M38-A2), Aspergillus flavus ATCC 28539; assay type: cell-based; conditions: first batch; 28° C., 21-26 h
Procedure: (§1) After a test compound was serially diluted, an MIC (minimum inhibitory concentration) assay was performed on the standard Candida strain and an MEC (minimum effective concentration) assay on the standard Aspergillus strain. The MIC assay was performed according to the guidelines of the Clinical and Laboratory Standards Institute (CLSI M27-A3) and the MEC assay according to the guidelines of the Clinical and Laboratory Standards Institute (CLSI M38-A2).
Aspergillus was passaged onto an SDA plate and cultured at 35° C. for 48 h to 7 d to induce sporulation. Colonies on the plate were covered with about 1 mL of 0.85% normal saline or sterile water (polysorbate 20 was added at a final concentration of 0.1%-0.01%). The medium was gently wiped on its surface with a tip or a sterile cotton swab (be careful not to break the medium), and the spore hyphae suspension was transferred to a sterile tube and let stand for 3-5 min so that the heavy particles settled. The homogeneous upper layer of the suspension was transferred to a new sterile tube, which was then sealed and vortexed for 15 s (be careful as the suspension may produce an aerosol when the cover is removed). The concentration of the suspension was adjusted until an OD value of 0.09-0.13 was achieved using a spectrophotometer at 530 nm. The suspension was 50-fold diluted with 1×RPMI 1640. 100 μL of sample was added to each well of the 96-well plate within 2 h after dilution (the final spore concentration in the susceptibility testing plate was at 0.4×10^4 to 5×10^4 CFU/mL).
Colony counting: The suspension diluted with RPMI 1640 was further diluted 10-fold, and 10 μL of the dilution was applied to an SDA plate, cultured at 28° C., and observed every day; colonies were immediately counted upon being visible to the naked eye.
(§2) For echinocandin drugs, Aspergillus was incubated at 28° C. for 21-26 h, and then the MEC results were read.
(§3) • Yeast-type fungi: A disposable sealing film was applied to the 96-well plate, and the mixture was well mixed by shaking. Observation was performed through a plate reader with the naked eye. Comparisons were made to the growth control, and the minimum compound concentration corresponding to ≥50% growth inhibition was defined as MIC. Pictures were taken and saved using an automatic plate reader. • Aspergillus: For echinocandin drugs, comparisons were made to the growth control under a plate reader, and the minimum drug concentration that could cause the hyphae to form small, round, compact hyphal particles was defined as MEC. For accurate determination of MEC values, the plate must not be vortexed before reading.

plasma histamine = assay: Plasma histamine assay after single intravenous injection; assay type: in vivo, SD rats
Procedure: (§4) 12 SD rats were divided into 2 groups of 6 (half are male and half female). […] The body weights were measured once before administration. Administration was performed by single intravenous injection for 20 min per animal. PK measurement was performed once before administration and 5 min, 30 min, 1 h, 4 h, 8 h, 24 h, 48 h, 72 h and 96 h after administration. A histamine assay was performed once before administration and 30 min, 4 h, 8 h and 24 h after administration.

[2] = Pharmacokinetic study after single intravenous injection; assay type: in vivo, SD rats; conditions: Sprague-Dawley, rat, plasma, 10 mg/kg i.v.; for AUC(0-t): read-out: AUC0-96; for Vd: read-out: VdSS
Procedure: as §4

[3] = tested on: Candida glabrata ATCC 15126; assay: MIC assay (CLSI M27-A3), Candida glabrata ATCC 15126; assay type: cell-based; conditions: first batch; 24 h, ≥50% growth inhibition
Procedure: as §1
(§5) The frozen strain was passaged at least twice, and a single colony was picked and resuspended in normal saline or sterile water in a tube. […]
as §2
as §3, with “Comparisons were made to the growth control, and the minimum compound concentration corresponding to ≥50% growth inhibition was defined as MIC.” left out

[4] = tested on: Candida albicans ATCC 90029; assay: MIC assay (CLSI M27-A3), Candida albicans ATCC 90029; assay type: cell-based; conditions: first batch; 24 h, ≥50% growth inhibition
Procedure: as §1, §5, §2
as §3, with “Comparisons were made to the growth control, and the minimum compound concentration corresponding to ≥50% growth inhibition was defined as MIC.” left out

[5] = tested on: Candida parapsilosis ATCC 22019; assay: MIC assay (CLSI M27-A3), Candida parapsilosis ATCC 22019; assay type: cell-based; conditions: first batch; 24 h, ≥50% growth inhibition; quality control strain
Procedure: as §1, §5, §2
as §3, with “Comparisons were made to the growth control, and the minimum compound concentration corresponding to ≥50% growth inhibition was defined as MIC.” left out

[6] = tested on: Meyerozyma guilliermondii ATCC 6260; assay: MIC assay (CLSI M27-A3), Meyerozyma guilliermondii ATCC 6260; assay type: cell-based; conditions: first batch; 24 h, ≥50% growth inhibition
Procedure: as §1, §5, §2
as §3, with “Comparisons were made to the growth control, and the minimum compound concentration corresponding to ≥50% growth inhibition was defined as MIC.” left out

Candida krusei ATCC 6258 = assay: MIC assay (CLSI M27-A3), Candida krusei ATCC 6258; assay type: cell-based; conditions: first batch; 24 h, ≥50% growth inhibition; quality control strain
Procedure: as §1, §5, §2
as §3, with “Comparisons were made to the growth control, and the minimum compound concentration corresponding to ≥50% growth inhibition was defined as MIC.” left out

[7] = tested on: Candida tropicalis ATCC 750; assay: MIC assay (CLSI M27-A3), Candida tropicalis ATCC 750; assay type: cell-based; conditions: first batch; 24 h, ≥50% growth inhibition
Procedure: as §1, §5, §2
as §3, with “Comparisons were made to the growth control, and the minimum compound concentration corresponding to ≥50% growth inhibition was defined as MIC.” left out

[8] = tested on: Candida albicans ATCC 90028; assay: MIC assay (CLSI M27-A3), Candida albicans ATCC 90028; assay type: cell-based; conditions: second batch
Procedure: as §1, §5, §2
as §3, with “Comparisons were made to the growth control, and the minimum compound concentration corresponding to ≥50% growth inhibition was defined as MIC.” left out

[9] = tested on: Candida tropicalis (amphotericin-resistant strain) ATCC 200956; assay: MIC assay (CLSI M27-A3), Candida tropicalis amphotericin-resistant strain ATCC 200956; assay type: cell-based; conditions: second batch; 24 h
Procedure: as §1, §5, §2
as §3, with “Comparisons were made to the growth control, and the minimum compound concentration corresponding to ≥50% growth inhibition was defined as MIC.” left out

[10] = tested on: Candida albicans (azole drug-resistant strain) R358; assay: MIC assay (CLSI M27-A3), Candida albicans azole drug-resistant strain R358; assay type: cell-based; conditions: second batch; 24 h
Procedure: as §1, §5, §2
as §3, with “Comparisons were made to the growth control, and the minimum compound concentration corresponding to ≥50% growth inhibition was defined as MIC.” left out

[11] = tested on: Candida glabrata ATCC 36583; assay: MIC assay (CLSI M27-A3), Candida glabrata ATCC 36583; assay type: cell-based; conditions: second batch; 24 h
Procedure: as §1, §5, §2
as §3, with “Comparisons were made to the growth control, and the minimum compound concentration corresponding to ≥50% growth inhibition was defined as MIC.” left out

SD rats = assay: General state observation after single intravenous injection; assay type: in vivo; conditions: 10 mg/kg single intravenous injection, day of administration
Procedure: as §4

[12] = tested on: Candida albicans ATCC 44858; assay: MIC assay (CLSI M27-A3), Candida albicans ATCC 44858; assay type: cell-based; conditions: second batch; 24 h
Procedure: as §1, §5, §2
as §3, with “Comparisons were made to the growth control, and the minimum compound concentration corresponding to ≥50% growth inhibition was defined as MIC.” left out

[13] = tested on: Candida albicans (azole drug-resistant strain) R357; assay: MIC assay (CLSI M27-A3), Candida albicans azole drug-resistant strain R357; assay type: cell-based; conditions: second batch; 24 h
Procedure: as §1, §5, §2
as §3, with “Comparisons were made to the growth control, and the minimum compound concentration corresponding to ≥50% growth inhibition was defined as MIC.” left out

## CCCCCOc1ccc(-c2ccc(-c3ccc(C(=O)N[C@H]4C[C@@H](O)[C@@H](O)NC(=O)[C@@H]5[C@@H](O)[C@@H](C)CN5C(=O)[C@H]([C@@H](C)O)NC(=O)[C@H]([C@H](O)[C@@H](O)c5ccc(O)cc5)NC(=O)[C@@H]5C[C@@H](O)CN5C(=O)[C@H]([C@@H](C)O)NC4=O)cc3)cc2)cc1 [Anidulafungin] ({pTerphenylCO(4''-OnC5H11)}-[Orn(4R-OH,5R-OH)]T[Hyp][hTyr(3S-OH,4S-OH)]T[Pro(3S-OH,4S-Me)]; lactam 1-C)
[1]
  MEC Aspergillus flavus ATCC 28539: 0.031 µg/mL

## CCCCCOc1ccc(-c2ccc(-c3ccc(C(=O)N[C@H]4C[C@@H](O)[C@@H](OC[C@H]5CCC[N+]5(C)C)NC(=O)[C@@H]5[C@@H](O)[C@@H](C)CN5C(=O)[C@H]([C@@H](C)O)NC(=O)[C@H]([C@H](O)[C@@H](O)c5ccc(O)cc5)NC(=O)[C@@H]5C[C@@H](O)CN5C(=O)[C@H]([C@@H](C)O)NC4=O)cc3)cc2)cc1 [Compound of formula (I)]
Plasma histamine; same dose (10 mg/kg) i.v., compared with rezafungin acetate
  ability to induce increases in the histamine level in rats: significantly lower
[1]
  MEC Aspergillus flavus ATCC 28539: 0.031 µg/mL
[2]; female SD rats
  AUC(0-inf): 195 µg·h/mL
  Cmax: 9300 ng/mL
  clearance: 0.9 mL/min/kg
  half-life: 25.5 h
  AUC(0-t): 180 µg·h/mL
  Vd: 1.8 L/kg
[2]; male SD rats
  AUC(0-inf): 191 µg·h/mL
  Cmax: 8000 ng/mL
  clearance: 0.9 mL/min/kg
  half-life: 27.7 h
  AUC(0-t): 174 µg·h/mL
  Vd: 1.9 L/kg

## Caspofungin acetate
[3]
  MIC Candida glabrata ATCC 15126: 0.25 µg/mL
[4]
  MIC Candida albicans ATCC 90029: 0.063 µg/mL
[5]
  MIC Candida parapsilosis ATCC 22019: 1 µg/mL
[6]
  MIC Meyerozyma guilliermondii ATCC 6260: 1 µg/mL
[1]
  MEC Aspergillus flavus ATCC 28539: 0.031 µg/mL
Candida krusei ATCC 6258
  MIC Candida krusei ATCC 6258: 1 µg/mL
[7]
  MIC Candida tropicalis ATCC 750: 0.016 µg/mL

## Rezafungin acetate
[8]; 24 h
  MIC Candida albicans ATCC 90028: 0.25 µg/mL
[8]; + 50% human serum
  MIC Candida albicans + 50% human serum ATCC 90028: 0.25 µg/mL
[9]
  MIC Candida tropicalis (amphotericin-resistant strain) ATCC 200956: 0.25 µg/mL
[10]
  MIC Candida albicans (azole drug-resistant strain) R358: 0.25 µg/mL
[3]
  MIC Candida glabrata ATCC 15126: 0.125 µg/mL
[4]
  MIC Candida albicans ATCC 90029: 0.125 µg/mL
[5]
  MIC Candida parapsilosis ATCC 22019: 2 µg/mL
Plasma histamine; 30 min after administration, 10 mg/kg i.v., p=0.046
  fold higher mean plasma histamine concentration than group 1: 4.5 times
[6]
  MIC Meyerozyma guilliermondii ATCC 6260: 2 µg/mL
[11]
  MIC Candida glabrata ATCC 36583: 0.25 µg/mL
[1]
  MEC Aspergillus flavus ATCC 28539: 0.031 µg/mL
Candida krusei ATCC 6258
  MIC Candida krusei ATCC 6258: 0.25 µg/mL
SD rats
  general state observation: transient slight decrease in activity occurred in 2 females
[7]
  MIC Candida tropicalis ATCC 750: 0.016 µg/mL
[12]
  MIC Candida albicans ATCC 44858: 0.25 µg/mL
[13]
  MIC Candida albicans (azole drug-resistant strain) R357: 0.25 µg/mL
